According to the C3SDB collision cross section collection:
Values joined by “and” are separate entries in the source; they are usually repeats but may differ in a detail not shown here. Equal values may be shown once.

Conditions: instrument: DT, single field, calibrated with ESI Low Concentration Tuning Mix (Agilent)

Row | SMILES | collision cross section (N2) ([M+H]+) | collision cross section (N2) ([M+Na]+) | collision cross section (N2) ([M-H]-) | also measured
1 | O=C1O[C@H]([C@@H](O)CO)C(O)=C1O [ASCORBATE] | – | 141.6 Å² | 127.7 Å² | –
2 | CC(C)[C@H](N)C(=O)O [VALINE] | 120.9 Å² | 133.4 Å² | 124.3 Å² | –
3 | OC1OC[C@@H](O)[C@@H](O)[C@H]1O (stereo partly drawn) [RIBOSE] | – | 135.2 Å² | – | –
4 | CC(C)(COP(=O)(O)OP(=O)(O)OC[C@H]1O[C@@H](n2cnc3c(N)ncnc32)[C@H](O)[C@@H]1OP(=O)(O)O)[C@@H](O)C(=O)NCCC(=O)NCCS [COENZYME A] | 241.4 Å² | 255.5 Å² | 244.4 Å² | collision cross section (N2) ([M+Na-2H]-): 246.2 Å²
5 | CC(=O)NCCCNCCCCNCCCN [N1-ACETYLSPERMINE] | 158 Å² | 162 Å² | – | –
6 | OC[C@@H](O)[C@@H](O)[C@H](O)[C@@H](O)CO [SORBITOL] | – | 142.9 Å² | 131.4 Å² | –
7 | C[C@H](CCC(=O)NCC(=O)O)[C@H]1CC[C@H]2[C@@H]3[C@H](O)C[C@@H]4C[C@H](O)CC[C@]4(C)[C@H]3C[C@H](O)[C@]12C [GLYCOCHOLATE] | 199.7 Å² | 202.2 Å² | 202.2 Å² | collision cross section (N2) ([M+K]+): 208 Å²
8 | OC[C@H]1O[C@H](OC[C@H]2O[C@H](O[C@]3(CO)O[C@H](CO)[C@@H](O)[C@@H]3O)[C@H](O)[C@@H](O)[C@@H]2O)[C@H](O)[C@@H](O)[C@H]1O [RAFFINOSE] | – | 208.9 Å² | 197.3 Å² | –
9 | O=P(O)(O)OCC(O)CO (stereo not drawn) [GLYCEROL 3-PHOSPHATE] | – | 137.1 Å² | 127.2 Å² | –
10 | OC1OC[C@H](O)[C@H](O)[C@H]1O (stereo partly drawn) [ARABINOSE] | – | 134.6 Å² | – | –
11 | CSc1ncnc2nc[nH]c12 [THIOPURINE S-METHYLETHER] | 129.8 Å² | 145.1 Å² | 127.7 Å² | –
12 | CCCCCCCCCCCCCCCC(=O)O [PALMITATE] | – | 173.2 Å² | – | –
13 | Nc1ccn([C@@H]2O[C@H](COP(=O)(O)OP(=O)(O)O)[C@@H](O)[C@H]2O)c(=O)n1 [CYTIDINE DIPHOSPHATE] | 175.6 Å² | 179.9 Å² | 174.2 Å² | collision cross section (N2) ([M+Na-2H]-): 176.3 Å²
14 | NCCOP(=O)(O)OP(=O)(O)OC[C@H]1O[C@@H](n2ccc(N)nc2=O)[C@H](O)[C@@H]1O [CDP-ETHANOLAMINE] | – | – | 188.2 Å² | collision cross section (N2) ([M+Na-2H]-): 186.1 Å²
15 | CCCCCCCC/C=C\CCCCCCCCCCCCCC(=O)[O-] [NERVONATE] | – | 204.4 Å² | 197.5 Å² | –
16 | O=c1cccc(O)[nH]1 [2,6-DIHYDROXYPYRIDINE] | – | – | 113.8 Å² | –

Row | SMILES | collision cross section (N2) ([M+H]+) | collision cross section (N2) ([M+Na]+) | collision cross section (N2) ([M-H]-) | also measured
17 | C[C@]12C[C@H](O)[C@H]3[C@@H](CCC4=CC(=O)CC[C@@]43C)[C@@H]1CC[C@@H]2C(=O)CO [CORTICOSTERONE] | 186.9 Å² | – | 186.8 Å² | collision cross section (N2) ([M+K]+): 208.4 Å²
18 | NCCS(=O)(=O)O [TAURINE] | 128.2 Å² and 134.2 Å² | – | 118.4 Å² | –
19 | O=P(O)(O)OC(CO)CO [BETA-GLYCEROPHOSPHATE] | – | 140.5 Å² | 126.3 Å² | collision cross section (N2) ([M+Na-2H]-): 147.2 Å²
20 | Cn1cnc2c(ncn2[C@@H]2O[C@H](CO)[C@@H](O)[C@H]2O)c1=N [1-METHYLADENOSINE] | 160 Å² and 164.7 Å² | 170.7 Å² | 162.7 Å² | –
21 | CSCC[C@H](NC=O)C(=O)O [N-FORMYL-L-METHIONINE] | – | 145.3 Å² | 136.1 Å² | –
22 | CCCCCCCCCCC/C=C\CCCCC(=O)[O-] [PETROSELINATE] | – | – | 175.6 Å² | –
23 | Nc1ncnc2c1ncn2[C@@H]1O[C@@H]2COP(=O)(O)O[C@H]2[C@H]1O [CYCLIC AMP] | 172.6 Å² and 176.8 Å² | 181 Å² and 188.6 Å² and 188.8 Å² | 171.8 Å² and 172 Å² | –
24 | O=C(O)CCC(=O)C(=O)O [OXOGLUTARATE] | – | – | 120.9 Å² | –
25 | O=C1O[C@H]([C@@H](O)CO)C(=O)C1=O [DEHYDROASCORBATE] | – | – | 127.8 Å² | –
26 | CC(O)(CC(=O)O)CC(=O)O [3-HYDROXYMETHYLGLUTARATE] | – | 135.9 Å² | 126.5 Å² | –
27 | C[C@@H]1NC(=O)N[C@@H]1CCCCCC(=O)O [DETHIOBIOTIN] | 144 Å² | 155 Å² | 152.5 Å² | collision cross section (N2) ([M+K]+): 155.8 Å²; collision cross section (N2) ([M+Na-2H]-): 148.8 Å²
28 | O=C(CO)[C@@H](O)[C@H](O)[C@H](O)COP(=O)(O)O [FRUCTOSE 6-PHOSPHATE] | – | 154.4 Å² | 144.1 Å² | collision cross section (N2) ([M+Na-2H]-): 154.9 Å²
29 | NC(=O)C1=CN([C@@H]2O[C@H](COP(=O)(O)OP(=O)(O)OC[C@H]3O[C@@H](n4cnc5c(N)ncnc54)[C@H](OP(=O)(O)O)[C@@H]3O)[C@@H](O)[C@H]2O)C=CC1 [NADPH] | – | – | 246.7 Å² | collision cross section (N2) ([M+Na-H]+): 240.5 Å²; collision cross section (N2) ([M+]+): 232.2 Å²
30 | Nc1nc(=O)c2ncn([C@H]3C[C@H](O)[C@@H](CO)O3)c2[nH]1 [DEOXYGUANOSINE] | – | 171.7 Å² | 159.1 Å² | collision cross section (N2) ([M+K]+): 171.4 Å²
31 | CC(C)(CO)[C@@H](O)C(=O)NCCC(=O)O [PANTOTHENATE] | 129.9 Å² | – | – | –

More lines, main results first:

Row | collision cross section (N2) ([M+H]+) | collision cross section (N2) ([M+Na]+) | collision cross section (N2) ([M-H]-) | SMILES | also measured
32 | 135.5 Å² | 150.2 Å² | 130.6 Å² | Cc1ncc(CO)c(C(=O)O)c1O [4-PYRIDOXATE] | collision cross section (N2) ([M+K]+): 147.4 Å²
33 | – | 149.6 Å² | 142 Å² | O=C(O)CNC(=O)c1ccccc1 [HIPPURATE] | –
34 | – | – | 172.7 Å² | O=C(/C=C/c1ccc(O)c(O)c1)O[C@@H](Cc1ccc(O)c(O)c1)C(=O)O [ROSMARINATE] | –
35 | 150.1 Å² and 150.3 Å² | 147.6 Å² and 147.7 Å² | 142.3 Å² and 142.5 Å² and 151.5 Å² | N[C@@H](Cc1c[nH]c2ccccc12)C(=O)O [TRYPTOPHAN] | –
36 | 186.6 Å² | 184 Å² | – | O=c1nc[nH]c2c1ncn2[C@@H]1O[C@H](COP(=O)(O)OP(=O)(O)O)[C@@H](O)[C@H]1O [INOSINE 5'-DIPHOSPHATE] | collision cross section (N2) ([M+Na-2H]-): 180 Å²
37 | – | – | 118.6 Å² and 118.7 Å² | N[C@@H](CC(=O)O)C(=O)O [ASPARTATE] | –
38 | – | – | 113.8 Å² | O=C(O)c1ccc[nH]1 [PYRROLE-2-CARBOXYLATE] | –
39 | 132.3 Å² | – | 126.6 Å² | O=C(O)c1cccnc1C(=O)O [QUINOLINATE] | –
40 | – | 146.2 Å² | 136 Å² | COc1cc(CC(=O)O)ccc1O [HOMOVANILLATE] | –
41 | – | – | 137.4 Å² | O=C(O)C(O)c1ccc(O)c(O)c1 (stereo not drawn) [3,4 DIHYDROXYMANDELATE] | –
42 | – | – | 134.2 Å² | NC[C@H](O)c1ccc(O)c(O)c1 [NORADRENALINE] | collision cross section (N2) ([M-H2O+H]+): 137.2 Å²
43 | – | – | 127.5 Å² | N[C@@H](COP(=O)(O)O)C(=O)O [PHOSPHOSERINE] | collision cross section (N2) ([M+Na-2H]-): 135.1 Å²
44 | – | – | 140.1 Å² | CNC[C@H](O)c1ccc(O)c(O)c1 [EPINEPHRINE] | –
45 | 130.5 Å² | – | – | CC(=O)OC[C@H](N)C(=O)O [O-ACETYLSERINE] | –
46 | 232.6 Å² | 240.9 Å² | 230.7 Å² and 230.9 Å² | NC(=O)c1ccc[n+]([C@@H]2O[C@H](COP(=O)(O)OP(=O)(O)OC[C@H]3O[C@@H](n4cnc5c(N)ncnc54)[C@H](OP(=O)(O)O)[C@@H]3O)[C@@H](O)[C@H]2O)c1 [NADP] | collision cross section (N2) ([M+H2O-H]-): 243.9 Å²; collision cross section (N2) ([M+Na-2H]-): 231.5 Å² and 231.8 Å²
47 | 193.6 Å² | 197 Å² | 189.2 Å² | O=c1nc[nH]c2c1ncn2[C@@H]1O[C@H](COP(=O)(O)OP(=O)(O)OP(=O)(O)O)[C@@H](O)[C@H]1O [INOSINE TRIPHOSPHATE] | collision cross section (N2) ([M+Na-2H]-): 182.8 Å²
48 | 140.9 Å² | 148.4 Å² | 137.1 Å² | O=C(O)Cc1c[nH]c2ccc(O)cc12 [5-HYDROXYINDOLEACETATE] | –
49 | 135.9 Å² | 143.5 Å² | – | O=C(O)Cc1c[nH]c2ccccc12 [INDOLE-3-ACETATE] | –
50 | – | 140.8 Å² | – | N[C@@H](COP(=O)(O)O)C(=O)O [O-PHOSPHOSERINE] | –
51 | 145.9 Å² | 145.7 Å² | – | N[C@@H](CCOC(=O)CCC(=O)O)C(=O)O [O-SUCCINYL-HOMOSERINE] | collision cross section (N2) ([M+Na-2H]-): 145.8 Å²
52 | – | 144.2 Å² | 141.9 Å² | O=C(O)C(O)Cc1ccc(O)cc1 (stereo not drawn) [HYDROXYPHENYLLACTATE] | –
